In US20170305882A1, “BENZYL SUBSTITUTED INDAZOLES AS BUB1 KINASE INHIBITORS” (Bayer Pharma Aktiengesellschaft, priority 2014, published 2017):
Like-named read-outs stand apart in the source and are kept apart here.

Columns and labels:
[1] = target: T1, (recombinant) catalytic domain of human Bub1 (amino acids 704-1085) (Homo sapiens, UniProt O43683); assay: Bub1 kinase assay (TR-FRET); assay type: biochemical
T1 construct: catalytic domain of human Bub1 (amino acids 704-1085); 6xHis (N); made in house; host or cells: Hi5 insect cells
T1 sequence (O43683 704-1085): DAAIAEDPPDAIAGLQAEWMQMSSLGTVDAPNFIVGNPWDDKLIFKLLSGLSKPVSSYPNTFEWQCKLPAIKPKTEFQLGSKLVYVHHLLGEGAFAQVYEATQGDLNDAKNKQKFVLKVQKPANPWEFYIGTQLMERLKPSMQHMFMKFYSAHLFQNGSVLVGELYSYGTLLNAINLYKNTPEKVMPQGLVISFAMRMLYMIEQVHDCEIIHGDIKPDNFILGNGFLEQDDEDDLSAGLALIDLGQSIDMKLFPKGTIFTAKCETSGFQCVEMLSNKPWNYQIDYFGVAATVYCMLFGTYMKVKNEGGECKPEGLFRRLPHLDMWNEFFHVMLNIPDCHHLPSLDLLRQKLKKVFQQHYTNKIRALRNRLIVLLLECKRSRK

[2] = tested on: histone 2A phosphorylation (kinase activity of Bub1); assay: H2A Formation-Assay (cell-based mechanistic assay, co-treatment with Nocodazole); conditions: 16 h, read-out: Biological Assay 4.1: H2A Formation IC50
Experimental: Cell-Based Mechanistic Assay: Changes of Phosphorylation Status of Histone 2A by Inhibition of Kinase Activity of Bub1
This assay determines the suppression of histone 2A phosphorylation by a Bub1 kinase inhibitor during co-treatment with Nocodazole. 25000 cells (cells were ordered from ATCC) were seeded in 96well plate for 5 h at 37° C. Cells were treated with Nocodazole (1 μg/ml) and varying concentrations (between 3 nM and 10 μM) of test compounds for 16 h. Cells were fixed (20 min, Fixing solution R&D), washed three times with PBS and blocked with Odyssey blocking buffer before incubating with the primary antibody against phosphorylated H2A (5 μg/ml ABIN482721) overnight at 2-8° C. After washing, secondary IRDye-labeled antibody mix with cell stains was added for 1 h and washed again with PBS. Plates were scanned with LICor Odyssey Infrared Imager CLx at 800 nm for P-H2A and at 700 nm for cell stains Draq5/Sapphire. The quotient of 800 nm and 700 nm for Nocodazole only treated cells was set as 100% and the quotient of 800 nm and 700 nm of untreated cells was set as 0%. […] The IC50 values were determined by means of a 4 parameter fit.

[3] = tested on: pre-induced phospho-histone 2A (kinase activity of Bub1); assay: H2A Abrogation-Assay (cell-based mechanistic assay, pre-treatment with Nocodazole); conditions: Nocodazole 16 h, then test compound 1 h; read-out: Biological Assay 4:2: H2A Abrogation IC50
From the text: Biological Assay 4.2: Abrogation-Assay
This assay measures the inhibition of histone 2A phosphorylation, which was induced by pre-treatment of the cells with Nocodazole, by a Bub1 kinase inhibitor.

[4] = tested on: HeLa human cervical tumor cells; assay: Proliferation Assay (HeLa + Paclitaxel); assay type: cell-based; conditions: 3 nM paclitaxel, test substance 92 hours; read-out: Biological Assay 3: Proliferation Assay (HeLa + Paclitaxel) IC50
From the text: Proliferation Assay (HeLa+Paclitaxel):

[5] = tested on: HeLa human cervical tumor cells; assay: Proliferation assay (HeLa cell line); assay type: cell-based; conditions: 96 h, 4 days incubation, crystal violet, read-out: Biological Assay 2: Proliferation assay (HeLa cell line) median IC50
From the text: Human tumour cells were originally obtained from the American Type Culture Collection (ATCC), the Deutsche Sammlung von Mikroorganismen und Zellkulturen (DSMZ, German Collection of Microorganisms and Cell Cultures), or Epo GmbH Berlin.

[6] = ATP 10 μM, 60 min reaction, pH 7.5, read-out: Biological Assay 1: Bub1 kinase assay median IC50

IC50 [1, 6]	IC50 [2]	IC50 [3]	IC50 [4]	IC50 [5]	IC50 ([1]; probe of the competition assay, read-out: inhibits the kinase activity of Bub1, IC50)	Compound
21 nM	3.5 nM	2.5 nM	120 nM	> 10000 nM		Cc1nccc(Nc2nc(-c3nn(Cc4c(F)cc(OCC(F)(F)F)cc4F)c4ccccc34)ncc2OCCCO)n1 [Example 2-1-19, 3-[(2-{1-[2,6-difluoro-4-(2,2,2-trifluoroethoxy)benzyl]-1H-indazol-3-yl}-4-[(2-methylpyrimidin-4-yl)amino]pyrimidin-5-yl)oxy]propan-1-ol]
15 nM			300 nM	2320 nM		Cc1cc(Nc2nc(-c3nn(Cc4c(F)cc(OCC5CC5)cc4F)c4ccccc34)ncc2OCCCO)c(C)cn1 [Example 2-1-23, 3-[(2-{1-[4-(cyclopropylmethoxy)-2,6-difluorobenzyl]-1H-indazol-3-yl}-4-[(2,5-dimethylpyridin-4-yl)amino]pyrimidin-5-yl)oxy]propan-1-ol]
11 nM	26 nM	56 nM	170 nM	> 10000 nM		Cc1nccc(Nc2nc(-c3nn(Cc4c(F)cc(OCC(F)F)cc4F)c4ccccc34)ncc2OCCCO)n1 [Example 2-1-21, 3-[(2-{1-[4-(2,2-difluoroethoxy)-2,6-difluorobenzyl]-1H-indazol-3-yl}-4-[(2-methylpyrimidin-4-yl)amino]pyrimidin-5-yl)oxy]propan-1-ol]
14 nM	14 nM	38 nM	64 nM	3790 nM		OCCCOc1cnc(-c2nn(Cc3c(F)cc(OCC(F)F)cc3F)c3ccccc23)nc1Nc1ccncc1Cl [Example 2-1-26, 3-[(4-[(3-chloropyridin-4-yl)amino]-2-{1-[4-(2,2-difluoroethoxy)-2,6-difluorobenzyl]-1H-indazol-3-yl}pyrimidin-5-yl)oxy]propan-1-ol]
4 nM						COCCOc1cc(F)c(Cn2nc(-c3ncc(OCCCO)c(Nc4ccncn4)n3)c3ccccc32)c(F)c1 [Example 2-1-27, 3{[2-{1-[2,6-difluoro-4-(2-methoxyethoxy)benzyl]-1H-indazol-3-yl}-4-(pyrimidin-4-ylamino)pyrimidin-5-yl]oxy}propan-1-ol]
21 nM					20.8 nM	CCOc1cc(F)c(Cn2nc(-c3ncc(OCCOCCNC(=S)Nc4ccc(-c5c6ccc(=O)cc-6oc6cc(O)ccc56)c(C(=O)O)c4)c(Nc4ccncc4)n3)c3ccccc32)c(F)c1 [Example 5-5-1, 5-[((2-[2-((2-[1-(4-ethoxy-2,6-difluorobenzyl)-1H-indazol-3-yl]-4-(pyridin-4-ylamino)pyrimidin-5-yl)oxy)ethoxy]ethyl)carbamothioyl)amino]-2-(6-hydroxy-3-oxo-3H-xanthen-9-yl)benzoic acid, reference compound]
9.2 nM	1.7 nM	3.9 nM	200 nM	> 10000 nM		CCOc1cc(F)c(Cn2nc(-c3ncc(OCCCO)c(Nc4ccnc(NC(C)=O)c4C)n3)c3ccccc32)c(F)c1 [Example 2-1-17, N-[4-({2-[1-(4-ethoxy-2,6-difluorobenzyl)-1H-indazol-3-yl]-5-(3-hydroxypropoxy)pyrimidin-4-yl}amino)-3-methylpyridin-2-yl]acetamide]
23 nM	2.1 nM	0.85 nM	330 nM	9940 nM		Cc1nccc(Nc2nc(-c3nn(Cc4c(F)cc(OCC5CC5)cc4F)c4ccccc34)ncc2OCCCO)n1 [Example 2-1-24, 3-[(2-{1-[4-(cyclopropylmethoxy)-2,6-difluorobenzyl]-1H-indazol-3-yl}-4-[(2-methylpyrimidin-4-yl)amino]pyrimidin-5-yl)oxy]propan-1-ol]
5.7 nM			180 nM	1390 nM		CCOc1cc(F)c(Cn2nc(-c3ncc(OCCCO)c(Nc4ccncc4OCC(F)(F)F)n3)c3ccccc32)c(F)c1 [Example 2-1-22, 3-[(2-[1-(4-ethoxy-2,6-difluorobenzyl)-1H-indazol-3-yl]-4-{[3-(2,2,2-trifluoroethoxy)pyridin-4-yl]amino}pyrimidin-5-yl)oxy]propan-1-ol]
16 nM						CCOc1cc(F)c(Cn2nc(-c3ncc(OCCCO)c(Nc4cc(C)ncc4F)n3)c3ccccc32)c(F)c1 [Example 2-1-16, 3-({2-[1-(4-Ethoxy-2,6-difluorobenzyl)-1H-indazol-3-yl]-4-[(5-fluor-2-methylpyridin-4-yl)amino]pyrimidin-5-yl}oxy)propan-1-ol]
19 nM			200 nM	1360 nM		CC(=O)Nc1cc(Nc2nc(-c3nn(Cc4c(F)cc(OCC(F)(F)F)cc4F)c4ccccc34)ncc2OCCCO)ccn1 [Example 2-1-25, N-(4-{[2-{1-[2,6-difluoro-4-(2,2,2-trifluoroethoxy)benzyl]-1H-indazol-3-yl}-5-(3-hydroxypropoxy)pyrimidin-4-yl]amino}pyridin-2-yl)acetamide]

The remaining lines, values behind:

Compound	IC50 [1, 6]	IC50 [2]	IC50 [3]	IC50 [4]	IC50 [5]	IC50 ([1]; probe of the competition assay, read-out: inhibits the kinase activity of Bub1, IC50)
CCOc1cc(F)c(Cn2nc(-c3ncc(OCCCO)c(Nc4ccncn4)n3)c3ccccc32)c(F)c1 [Example 2-1-9, 3-({2-[1-(4-ethoxy-2,6-difluorobenzyl)-1H-indazol-3-yl]-4-(pyrimidin-4-ylamino)pyrimidin-5-yl}oxy)propan-1-ol]	3.8 nM	171 nM	33 nM	330 nM	> 10000 nM	
CCOc1cc(F)c(Cn2nc(-c3ncc(OCCCO)c(Nc4ccnc(C)n4)n3)c3ccccc32)c(F)c1 [Example 2-1-7, 3-({2-[1-(4-ethoxy-2,6-difluorobenzyl)-1H-indazol-3-yl]-4-[(2-methylpyrimidin-4-yl)amino]pyrimidin-5-yl}oxy)propan-1-ol]	7 nM	87 nM	48 nM	190 nM	> 10000 nM	
CCOc1cc(F)c(Cn2nc(-c3ncc(OCCCO)c(Nc4cc(NC(C)=O)ncc4C)n3)c3ccccc32)c(F)c1 [Example 2-1-12, N-[4-({2-[1-(4-ethoxy-2,6-difluorobenzyl)-1H-indazol-3-yl]-5-(3-hydroxypropoxy)pyrimidin-4-yl}amino)-5-methylpyridin-2-yl]acetamide]	35 nM					
OCCCOc1cnc(-c2nn(Cc3c(F)cc(OCC4CC4)cc3F)c3ccccc23)nc1Nc1ccncc1Cl [Example 2-1-13, 3-[(4-[(3-chloropyridin-4-yl)amino]-2-{1-[4-(cyclopropylmethoxy)-2,6-difluorobenzyl]-1H-indazol-3-yl}pyrimidin-5-yl)oxy]propan-1-ol]	11 nM	360 nM	64 nM	180 nM	3900 nM	
CCOc1cc(F)c(Cn2nc(-c3ncc(OCCCO)c(Nc4ccncc4C4CC4)n3)c3ccccc32)c(F)c1 [Example 2-1-3, 3-({4-[(3-cyclopropylpyridin-4-yl)amino]-2-[1-(4-ethoxy-2,6-difluorobenzyl)-1H-indazol-3-yl]pyrimidin-5-yl}oxy)propan-1-ol]	11 nM	0.97 nM	0.93 nM	54 nM	3700 nM	
CCOc1cc(F)c(Cn2nc(-c3ncc(OCCCO)c(Nc4ccncc4C)n3)c3ccccc32)c(F)c1 [Example 2-1-2, 3-({2-[1-(4-ethoxy-2,6-difluorobenzyl)-1H-indazol-3-yl]-4-[(3-methylpyridin-4-yl)amino]pyrimidin-5-yl}oxy)propan-1-ol]	10 nM	31 nM	17 nM		3700 nM	
CCOc1cc(F)c(Cn2nc(-c3ncc(OCCCO)c(Nc4ccnc(C)c4)n3)c3ccccc32)c(F)c1 [Example 2-1-4, 3-({2-[1-(4-ethoxy-2,6-difluorobenzyl)-1H-indazol-3-yl]-4-[(2-methylpyridin-4-yl)amino]pyrimidin-5-yl}oxy)propan-1-ol]	12 nM	8.4 nM	80 nM	100 nM	3000 nM	
CCOc1cc(F)c(Cn2nc(-c3ncc(OCCCO)c(Nc4ccnc(F)c4)n3)c3ccccc32)c(F)c1 [Example 2-1-10, 3-({2-[1-(4-ethoxy-2,6-difluorobenzyl)-1H-indazol-3-yl]-4-[(2-fluoropyridin-4-yl)amino]pyrimidin-5-yl}oxy)propan-1-ol]	15 nM	44 nM	23 nM	1400 nM	9000 nM	
CCOc1cc(F)c(Cn2nc(-c3ncc(OCCO)c(Nc4ccncc4)n3)c3ccccc32)c(F)c1 [Example 5-6-1, 2-({2-[1-(4-ethoxy-2,6-difluorobenzyl)-1H-indazol-3-yl]-4-(pyridin-4-ylamino)pyrimidin-5-yl}oxy)ethanol, reference compound]		1100 nM		1400 nM		
CCOc1cc(F)c(Cn2nc(-c3ncc(OCCCO)c(Nc4cc(C)ncc4C)n3)c3ccccc32)c(F)c1 [Example 2-1-11, 3-{[4-[(2,5-dimethylpyridin-4-yl)amino]-2-[1-(4-ethoxy-2,6-difluorobenzyl)-1H-indazol-3-yl]pyrimidin-5-yl}oxy)propan-1-ol]	21 nM	26 nM	17 nM	260 nM	3200 nM	
